# Measured values published in patent publication US20240158404A1, “MODULATORS OF ALPHA-1 ANTITRYPSIN” (Vertex Pharmaceuticals Incorporated, priority 2022, published 2024).
# Key:
# [1] = Exposure multiple in rat 5-day toxicology studies; type: in vivo; design: key to Exposure Multiple: ratio of tox-species AUC to target efficacious AUCss; details: for EM Score: based on the maximum exposure multiple achieved in the rat 5-day toxicology study; for Exposure Multiple: rat 5-day toxicology study, vs predicted human efficacious exposure
# Text: “Exposure multiple” as used herein, refers to an assessment of relative compound exposure in toxicology studies. The calculation of an exposure multiple is accomplished by comparing the exposure (AUC) achieved in a toxicology species relative to the target efficacious exposure at steady state (AUCss). The larger exposure multiple provides the opportunity to explore higher doses relative to efficacious concentration in clinical development. However, the exposure that results in an adverse toxicological outcome is unpredictable.
# The calculation of an exposure multiple is accomplished by comparing the plasma exposure (AUC) achieved in a toxicology species relative to the target efficacious exposure at steady state (AUCss). […] In addition, this exposure multiple can allow for further exploration of the desired pharmacology due to the opportunity for a larger window established in toxicology studies. However, the exposure that results in a toxicological outcome in preclinical toxicology studies is unpredictable.
# Human exposure multiple (EM) values shown relate to the fold increase in exposure achieved in rat 5-day toxicology studies for a given dose relative to the predicted efficacious exposure anticipated in human (based on cellular NL20 EC50 in vitro efficacy). The exposure multiple score is based on the maximum exposure multiple achieved in the given study. This allows relative comparison across compounds when also considering the administered dose. […] In the tables below, the following meanings apply for exposure multiple scores: “−” means <1; “+” means 1-10; “++” means 10-20; “+++” means 20-30; “++++” means 30-50; and “+++++” means >50.
# AAT = molecular target: T1, AAT (Homo sapiens, UniProt P01009, E366K); assay: Compound Quality score (potency in AAT functional assay multiplied by unbound clearance); details: compound potency (EC50) x unbound clearance; class symbols
# T1 construct: expressed in transfected cells; host or cells: NL20 human bronchial epithelial cells (NL20-SI cell line), with doxycycline added alongside the compounds
# Text: As used herein, the term “Compound Quality” refers to the potency of a compound multiplied (x) by the compound's unbound clearance as measured using the assays described in Example 6.
# The terms “unbound clearance” refer to unbound intrinsic clearance (unbound CLint) in hepatocytes—the intrinsic clearance a drug would have in the absence of protein binding. Unbound CLint=CLint,hep/fu,hep, where CLint,hep is intrinsic clearance in hepatocytes and fu,hep is unbound fraction in hepatocytes.
# A key consideration for the selection of compounds suitable for clinical development is the projection of human dose as described in Equations 1-3. Two key parameters that comprise the dose equation are the unbound clearance of a compound and the plasma efficacious exposure (also referred to herein as compound potency). Together these parameters are known to one skilled in the art as a measurement of Compound Quality and suitability for advancement into clinical development. Thus, when evaluating AAT modulator compounds, one needs to consider both the potency and unbound clearance parameters (i.e., Compound Quality). The relationship between these two parameters can be challenging to predict.
# The values provided in the table below are calculated by multiplying the EC50 of each of the compounds by the result from the clearance assay procedures described in Section C above and rounded to two significant figures. In the table below, the following meanings apply for Compound Quality (i.e., compound potency x unbound clearance) values: “++++” means ≤0.2; “+++” means >0.20 and ≤0.30; “++” means >0.30 and ≤0.40; “+” means >0.40 and ≤0.50.
# T1 sequence (P01009 25-418 E366K): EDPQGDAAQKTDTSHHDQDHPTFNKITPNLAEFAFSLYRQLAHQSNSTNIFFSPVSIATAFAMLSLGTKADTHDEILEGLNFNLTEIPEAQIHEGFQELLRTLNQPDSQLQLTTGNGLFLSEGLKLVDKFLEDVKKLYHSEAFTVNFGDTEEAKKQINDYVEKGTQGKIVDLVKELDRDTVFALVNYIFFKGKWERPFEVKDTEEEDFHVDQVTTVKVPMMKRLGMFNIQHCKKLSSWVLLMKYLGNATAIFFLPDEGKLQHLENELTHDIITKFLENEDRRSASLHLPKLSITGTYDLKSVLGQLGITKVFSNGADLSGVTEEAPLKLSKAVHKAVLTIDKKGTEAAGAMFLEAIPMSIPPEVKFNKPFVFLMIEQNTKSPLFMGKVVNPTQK
structure (smiles),measurement,setting,value
"CC[C@@](O)(COC)c1c(-c2ccc(C(=O)O)cc2)c2c(F)c3[nH]ncc3cc2n1-c1ccc(F)cc1 [Compound 1, (S)-4-(8-Fluoro-5-(4-fluorophenyl)-6-(2-hydroxy-1-methoxybutan-2-yl)-1,5-dihydropyrrolo[2,3-f]indazol-7-yl)benzoic acid]",EM Score,[1],+++++ (“+++++” means >50)
same,Exposure Multiple,[1]; Bid dose 50 (daily 100),10
same,Exposure Multiple,[1]; Bid dose 200 (daily 400),82
same,Exposure Multiple,[1]; Bid dose 500 (daily 1000),126
same,Compound Quality,AAT,++++ (“++++” means ≤0.2)
"CC[C@@](O)(COC)c1c(-c2ccc(C(=O)O)cc2)c2c(F)c3[nH]ncc3cc2n1-c1ccc(F)c(C)c1 [Compound 2, (S)-4-(8-fluoro-5-(4-fluoro-3-methylphenyl)-6-(2-hydroxy-1-methoxybutan-2-yl)-1,5-dihydropyrrolo[2,3-f]indazol-7-yl)benzoic acid]",EM Score,[1],++++ (“++++” means 30-50)
same,Exposure Multiple,[1]; Bid dose 50 (daily 100),2
same,Exposure Multiple,[1]; Bid dose 200 (daily 400),10
same,Exposure Multiple,[1]; Bid dose 500 (daily 1000),40
same,Compound Quality,AAT,+++ (“+++” means >0.20 and ≤0.30)
"CC[C@@](O)(COC)c1c(-c2ccc(C(=O)O)cc2)c2c(F)c3[nH]ncc3cc2n1-c1ccc(F)c(OC)c1 [Compound 3, (S)-4-(8-fluoro-5-(4-fluoro-3-methoxyphenyl)-6-(2-hydroxy-1-methoxybutan-2-yl)-1,5-dihydropyrrolo[2,3-f]indazol-7-yl)benzoic acid]",EM Score,[1],+++++ (“+++++” means >50)
same,Exposure Multiple,[1]; Bid dose 50 (daily 100),2
same,Exposure Multiple,[1]; Bid dose 200 (daily 400),17
same,Exposure Multiple,[1]; Bid dose 500 (daily 1000),60
same,Compound Quality,AAT,+++ (“+++” means >0.20 and ≤0.30)
CCc1cc(-c2c(C(O)(CC)COC)n(-c3ccc(F)c(F)c3)c3cc4cn[nH]c4c(F)c23)ccc1C(=O)O (stereo not shown) [Compound 48],Compound Quality,AAT,+ (“+” means >0.40 and ≤0.50)
CCc1cc(-c2c(C(O)(CC)COC)n(-c3ccc(F)c(OC)c3)c3cc4cn[nH]c4c(F)c23)ccc1C(=O)O (stereo not shown) [Compound 49],Compound Quality,AAT,++ (“++” means >0.30 and ≤0.40)
[2H]C([2H])([2H])Oc1cc(-n2c(C(O)(CC)COC)c(-c3ccc(C(=O)O)c(C)c3)c3c(F)c4[nH]ncc4cc32)ccc1F (stereo not shown) [Compound 50],Compound Quality,AAT,++ (“++” means >0.30 and ≤0.40)
[2H]C([2H])([2H])Oc1cc(-n2c(C3(O)CCCC[C@@H]3OC)c(-c3ccc(C(=O)O)cc3)c3c(F)c4[nH]ncc4cc32)ccc1F (stereo partly shown) [Compound 51],Compound Quality,AAT,++ (“++” means >0.30 and ≤0.40)
[2H]C([2H])([2H])OCC(O)(CC)c1c(-c2ccc(C(=O)O)cc2)c2c(F)c3[nH]ncc3cc2n1-c1ccc(F)cc1 (stereo not shown) [Compound 52],Compound Quality,AAT,++ (“++” means >0.30 and ≤0.40)
[2H]C([2H])([2H])OCC(O)(CC)c1c(-c2ccc(C(=O)O)cc2)c2c(F)c3[nH]ncc3cc2n1-c1ccc(F)c(OC)c1 (stereo not shown) [Compound 53],Compound Quality,AAT,++ (“++” means >0.30 and ≤0.40)
[2H]C([2H])([2H])Oc1cc(-n2c(C3(O)CCCC[C@@H]3OC)c(-c3ccc(C(=O)O)c(C)c3)c3c(F)c4[nH]ncc4cc32)ccc1F (stereo partly shown) [Compound 54],Compound Quality,AAT,++++ (“++++” means ≤0.2)
COc1cc(-n2c(C3(O)CCCC[C@@H]3OC)c(-c3ccc(C(=O)O)c(C)c3)c3c(F)c4[nH]ncc4cc32)ccc1F (stereo partly shown) [Compound 55],Compound Quality,AAT,++ (“++” means >0.30 and ≤0.40)
CO[C@H]1CCCCC1(O)c1c(-c2ccc(C(=O)O)c(C)c2)c2c(F)c3[nH]ncc3cc2n1-c1ccc(F)cc1 (stereo partly shown) [Compound 56],Compound Quality,AAT,+++ (“+++” means >0.20 and ≤0.30)
[2H]C([2H])([2H])OC[C@@](O)(c1c(-c2ccc(C(=O)O)cc2)c2c(F)c3[nH]ncc3cc2n1-c1ccc(F)c(C)c1)C([2H])([2H])C([2H])([2H])[2H] [Compound 57],Compound Quality,AAT,+ (“+” means >0.40 and ≤0.50)
CCOC1CCCC1(O)c1c(-c2ccc(C(=O)O)cc2)c2c(F)c3[nH]ncc3cc2n1-c1ccc(F)c(OC)c1 (stereo not shown) [Compound 58],Compound Quality,AAT,+ (“+” means >0.40 and ≤0.50)
COC1COCCC1(O)c1c(-c2ccc(C(=O)O)cc2)c2c(F)c3[nH]ncc3cc2n1-c1ccc(F)c(C)c1 (stereo not shown) [Compound 59],Compound Quality,AAT,++ (“++” means >0.30 and ≤0.40)
CO[C@H]1CCCCC1(O)c1c(-c2ccc(C(=O)O)cc2)c2c(F)c3[nH]ncc3cc2n1-c1ccc(F)c(F)c1F (stereo partly shown) [Compound 60],Compound Quality,AAT,+++ (“+++” means >0.20 and ≤0.30)
CO[C@H]1CCCCC1(O)c1c(-c2ccc(C(=O)O)cc2)c2c(F)c3[nH]ncc3cc2n1-c1cc(F)c(F)cc1F (stereo partly shown) [Compound 61],Compound Quality,AAT,+++ (“+++” means >0.20 and ≤0.30)
CCC(O)(COC)c1c(-c2ccc(C(=O)O)cc2F)c2c(F)c3[nH]ncc3cc2n1-c1ccc(F)c(F)c1 (stereo not shown) [Compound 62],Compound Quality,AAT,+ (“+” means >0.40 and ≤0.50)
CCC(O)(COC)c1c(-c2ccc(C(=O)O)cc2F)c2c(F)c3[nH]ncc3cc2n1-c1ccc(F)c(C)c1 (stereo not shown) [Compound 63],Compound Quality,AAT,+ (“+” means >0.40 and ≤0.50)
CCOCC(O)(CC)c1c(-c2ccc(C(=O)O)cc2)c2c(F)c3[nH]ncc3cc2n1-c1cccc2cnn(C)c12 (stereo not shown) [Compound 64],Compound Quality,AAT,++ (“++” means >0.30 and ≤0.40)
[2H]C([2H])([2H])Oc1cc(-n2c(C(O)(CC)COC)c(-c3ccc(C(=O)O)c(CC)c3)c3c(F)c4[nH]ncc4cc32)ccc1F (stereo not shown) [Compound 65],Compound Quality,AAT,+ (“+” means >0.40 and ≤0.50)
COc1cc(-n2c(C3(O)CCCCC3F)c(-c3ccc(C(=O)O)cc3)c3c(F)c4[nH]ncc4cc32)ccc1F (stereo not shown) [Compound 66],Compound Quality,AAT,++ (“++” means >0.30 and ≤0.40)
CO[C@H]1CCCCC1(O)c1c(-c2ccc(C(=O)O)c(F)c2)c2c(F)c3[nH]ncc3cc2n1-c1ccc(F)cc1 (stereo partly shown) [Compound 67],Compound Quality,AAT,++ (“++” means >0.30 and ≤0.40)
CC[C@](O)(COC)c1c(-c2ccc(C(=O)O)cc2)c2cc3[nH]ncc3cc2n1-c1ccc(F)c(Cl)c1 [reference compound],EM Score,[1],+ (“+” means 1-10)
same,Exposure Multiple,[1]; Bid dose 100 (daily 200),2
same,Exposure Multiple,[1]; Bid dose 250 (daily 500),1
same,Exposure Multiple,[1]; Bid dose 500 (daily 1000),2
CCC(O)(COC)c1c(-c2ccc(C(=O)O)cc2)c2cc3[nH]ncc3cc2n1-c1ccc(F)cc1 (stereo not shown) [reference compound],EM Score,[1],++ (“++” means 10-20)
same,Exposure Multiple,[1]; Bid dose 250 (daily 500),14
O=C(O)c1ccc(-c2c(C3CCOCC3)n(-c3ccc(F)c(F)c3)c3cc4cn[nH]c4cc23)cc1 [reference compound],EM Score,[1],− (“−” means <1)
same,Exposure Multiple,[1]; Bid dose 300 (daily 600),0.4
COCC(C)(C)c1c(-c2ccc(C(=O)O)cc2)c2cc3[nH]ncc3cc2n1-c1ccc(F)cc1 [reference compound],EM Score,[1],++ (“++” means 10-20)
same,Exposure Multiple,[1]; Bid dose 25 (daily 50),5
same,Exposure Multiple,[1]; Bid dose 50 (daily 100),13
same,Exposure Multiple,[1]; Bid dose 100 (daily 200),18
CC(C)(CC#N)c1c(-c2ccc(C(=O)O)cc2)c2cc3[nH]ncc3cc2n1-c1ccc(F)cc1 [reference compound],EM Score,[1],+ (“+” means 1-10)
same,Exposure Multiple,[1]; Bid dose 287.5 (daily 575),1.8
